Reference: US20060183716A1, “2-Methylene-19-nor-(20S-24S)-1alpha,25-dihydroxyvitamin D2” (Wisconsin Alumni Research Foundation, priority 2005, published 2006)

Legend:
calcemic activity = details: as described in the '352, '861 and '622 patents; cited from earlier work
vitamin D receptors = target: T1, vitamin D receptors (Homo sapiens, UniProt P11473); details: as described in the '352, '861 and '622 patents; cited from earlier work
T1 sequence (P11473 1-427): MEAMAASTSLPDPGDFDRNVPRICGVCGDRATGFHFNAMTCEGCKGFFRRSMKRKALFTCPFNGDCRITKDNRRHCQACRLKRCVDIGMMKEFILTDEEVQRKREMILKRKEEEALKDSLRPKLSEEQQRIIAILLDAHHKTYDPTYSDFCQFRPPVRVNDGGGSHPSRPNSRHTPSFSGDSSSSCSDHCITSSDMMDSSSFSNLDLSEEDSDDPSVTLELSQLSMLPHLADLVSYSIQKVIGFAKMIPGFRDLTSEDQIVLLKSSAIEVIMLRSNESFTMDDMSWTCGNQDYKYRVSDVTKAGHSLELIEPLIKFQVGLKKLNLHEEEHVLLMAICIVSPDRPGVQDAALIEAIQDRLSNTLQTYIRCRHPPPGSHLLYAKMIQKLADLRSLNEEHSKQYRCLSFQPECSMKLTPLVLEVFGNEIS

cell differentiation = details: as described in the '352, '861 and '622 patents; cited from earlier work
[1] = test system: intestinal calcium transport; assay: Intestinal calcium transport (everted gut sac method); assay type: in vivo, Sprague-Dawley rats; details: rats on 0.02% Ca diet, four consecutive ip doses, FIG. 5
Text: (§1) FIG. 5 is a bar graph comparing the intestinal calcium transport activity of (20S/24S) 2-MD2 with that of 1,25(OH)2D3. Male, weanling Sprague-Dawley rats were placed on Diet 11 (0.47% Ca) diet +AEK for one week followed by Diet 11 (0.02% Ca) +AEK for 3 weeks. The rats were then switched to a diet containing 0.47% Ca for one week followed by two weeks on a diet containing 0.02% Ca. Dose administration began during the last week on 0.02% calcium diet. Four consecutive ip doses were given approximately 24 hours apart. Twenty-four hours after the last dose, blood was collected from the severed neck and the concentration of serum calcium determined as a measure of bone calcium mobilization. The first 10 cm of the intestine was also collected for intestinal calcium transport analysis using the everted gut sac method.

[2] = test system: 24-hydroxylase (24Ohase) gene promoter in ROS 17/2.8 (bone) cells; assay: In vitro transcription assay (24-hydroxylase promoter luciferase reporter); assay type: cell-based; details: ROS 17/2.8 cells, sixteen hours after dosing, FIG. 3
Description: FIG. 3 is a graph comparing the in vitro transcription activity of (20S/24S) 2-MD2 with that of 1,25(OH)2D3.
Transcription activity was, measured in ROS 17/2.8 (bone) cells that were stably transfected with a 24-hydroxylase (24Ohase) gene promoter upstream of a luciferase reporter gene (Arbour et al., 1998). Cells were given a range of doses. Sixteen hours after dosing the cells were harvested and luciferase activities were measured using a luminometer. RLU=relative luciferase units.

[3] = target: T2, full-length recombinant rat vitamin D receptor (Rattus norvegicus, UniProt P13053); assay: Vitamin D receptor competitive binding with [3H]-1,25-(OH)2-D3; details: competition with [3H]-1,25-(OH)2-D3; compared with 1,25(OH)2D3; FIG. 1
T2 construct: Full-length recombinant rat receptor was expressed in E. coli BL21(DE3) Codon Plus RIL cells; histidine tag (C); made in house; host or cells: E. coli BL21(DE3) Codon Plus RIL
T2 sequence (P13053 1-423): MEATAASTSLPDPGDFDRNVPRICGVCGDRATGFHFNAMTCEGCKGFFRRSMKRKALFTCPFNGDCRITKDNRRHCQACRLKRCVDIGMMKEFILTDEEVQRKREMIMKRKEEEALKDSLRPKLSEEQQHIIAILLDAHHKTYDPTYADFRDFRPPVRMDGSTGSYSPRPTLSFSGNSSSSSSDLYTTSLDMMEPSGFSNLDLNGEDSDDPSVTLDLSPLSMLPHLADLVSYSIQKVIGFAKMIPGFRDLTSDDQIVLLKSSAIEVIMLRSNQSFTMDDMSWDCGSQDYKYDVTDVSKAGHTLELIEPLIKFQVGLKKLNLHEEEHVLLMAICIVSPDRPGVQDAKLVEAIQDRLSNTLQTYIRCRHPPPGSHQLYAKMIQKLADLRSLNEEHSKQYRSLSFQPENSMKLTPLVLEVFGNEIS
Text: FIG. 1 is a graph comparing the relative activity of (20S/24S) 2-MD2 and 1,25(OH)2D3 to compete for binding with [^3H]-1,25-(OH)2-D3 to the full-length recombinant rat vitamin D receptor.
Full-length recombinant rat receptor was expressed in E. coli BL21(DE3) Codon Plus RIL cells and purified to homogeneity using two different column chromatography systems. The first system was a nickel affinity resin that utilizes the C-terminal histidine tag on this protein. The protein that was eluted from this resin was further purified using ion exchange chromatography (S-Sepharose Fast Flow). Aliquots of the purified protein were quick frozen in liquid nitrogen and stored at −80° C. until use. For use in binding assays, the protein was diluted in TEDK50 (50 mM Tris, 1.5 mM EDTA, pH 7.4, 5 mM DTT, 150 mM KCl) with 0.1% Chaps detergent. […]
Unlabeled ligands were dissolved in ethanol and the concentrations determined using UV spectrophotometry (1,25(OH)2D3:molar extinction coefficient=18,200 and λmax=265 nm; Analogs: molar extinction coefficient=42,000 and λmax=252 nm). […]
Radiolabeled and unlabeled ligands were added to 100 mcl of the diluted protein at a final ethanol concentration of ≦10%, mixed and incubated overnight on ice to reach binding equilibrium. […] Total binding was determined from the tubes containing only radiolabeled ligand.

[4] = test system: bone calcium mobilization; assay: Bone calcium mobilization (serum calcium); assay type: in vivo, Sprague-Dawley rats; details: rats on 0.02% Ca diet, four consecutive ip doses; compared with 1,25(OH)2D3; FIG. 4
Text: as §1, with “FIG. 4 is a” for “FIG. 5 is a”, “comparing the bone calcium mobilization” for “comparing the intestinal calcium transport”, “bone calcium mobilization activity of” for “intestinal calcium transport activity of”

[5] = test system: Human promyelocytic leukemia (HL60) cells; assay: HL-60 cell differentiation (nitro blue tetrazolium reduction); assay type: cell-based; details: compared with 1,25(OH)2D3; four days; FIG. 2
Description: FIG. 2 is a graph comparing the percent HL-60 cell differentiation as a function of the concentration of (20S/24S) 2-MD2 with that of 1,25(OH)2D3.
The study drugs were dissolved in ethanol and the concentrations determined using UV spectrophotometry. Serial dilutions were prepared so that a range of drug concentrations could be tested without changing the final concentration of ethanol (≦0.2%) present in the cell cultures.
Human promyelocytic leukemia (HL60) cells were grown in RPMI-1640 medium containing 10% fetal bovine serum. The cells were incubated at 37° C. in the presence of 5% CO2.
HL60 cells were plated at 1.2×10^5 cells/ml. Eighteen hours after plating, cells in duplicate were treated with drug. Four days later, the cells were harvested and a nitro blue tetrazolium reduction assay was performed (Collins et al., 1979; J. Exp. Med. 149:969-974). The percentage of differentiated cells was determined by counting a total of 200 cells and recording the number that contained intracellular black-blue formazan deposits. Verification of differentiation to monocytic cells was determined by measuring phagocytic activity (data not shown).

Row | Compound | calcemic activity as compared to 1α,25-dihydroxyvitamin D3 (calcemic activity) | binding activity to vitamin D receptors (vitamin D receptors) | cell differentiation activity (cell differentiation) | intestinal calcium transport [1] | causing transcription relative to 1,25-(OH)2D3 [2] | binding to the vitamin D receptor relative to native hormone [3] | bone calcium mobilizing activity [4] | inducing differentiation of HL-60 cells relative to native hormone [5]
1 | 1α-hydroxy-2-methylene-19-nor-(20S)-homopregnacalciferol | little if any | relatively high | relatively high |  |  |  |  | 
2 | 1α-hydroxy-2-methylene-19-nor-bishomopregnacalciferol | little if any | relatively high | relatively high |  |  |  |  | 
3 | C=C1[C@H](O)CC(=C/C=C2\CCC[C@]3(C)C([C@@H](C)/C=C/[C@H](C)C(C)(C)O)CC[C@@H]23)C[C@H]1O (stereo in doubt) [2-methylene-19-nor-(20S-24S)-1α,25-dihydroxyvitamin D2] |  |  |  | does retain some ability to elevate intestinal calcium transport | slightly more effective than 1,25-(OH)2D3 | almost equal to the native hormone | comparable to 1,25(OH)2D3 | almost equal to the native hormone
4 | C=C1[C@H](O)CC(=C/C=C2\CCC[C@]3(C)[C@@H](CC)CC[C@@H]23)C[C@H]1O [1α-Hydroxy-2-methylene-19-nor-pregnacalciferol] | little if any | relatively high | relatively high |  |  |  |  | 
